Assay results: patent US20120101121A1, “DRUG DEMONSTRATING ANXIOLYTIC EFFECT BASED ON HYDROGENATED PYRIDO (4,3-B) INDOLES, ITS PHARMACOLOGICAL COMPOUND AND APPLICATION METHOD” (Medivation Neurology ,Inc., priority 2007, published 2012)

Assays:
outbred white male rats = assay: Vogel conflict situation test (punishable drinkings); type: in vivo, rat; settings: for No. of punishable drinkings: 40 min before test, 10 min registration
Method: 93-113). Such conflict situations most frequently lead to stress and neurotic diseases.
The tests were conducted using outbred white male rats with body weights between 220 g and 250 g. […] The conflict situation was created by suppressing the drinking reflex during water consumption from the drinking tube using algesic electric stimulus (i.e., electric shock causing pain). Thus, the Vogel conflict method is based on the conflict of two motivations: drinking and defensive. Thus, the animal fears punishment when attempting to satisfy its thirst, and that fear suppresses typical animal behavior. The animal cannot satisfy its thirst, creating an imbalance between what is desirable and what is real, thereby resulting in a stressful situation, accompanied by anxiety and fear of receiving an additional algesic electric stimulus. If a test compound has anxiolytic effect, it will enable the animal to overcome anxiety and fear of the punishment factor, restoring the ability to drink despite the possibility of receiving additional algesic electric stimuli, measured as an increase in incidents of punishable responses, i.e., drinking, despite the continued risk of receiving algesic electric stimuli.
The experimental setup consists of three parts: 4 experimental chambers, an electronic unit and a counting device. The experimental chamber measures 275×275×450 mm and is made of Plexiglas. It is installed on a standard electrode floor made of 4 mm diameter stainless steel rods spaced by 8-10 mm apart. Attached to the side wall of each chamber is a standard drinking tube attached to a glass container including a stainless steel nipple. In the device, the drinking tube is installed within common space of the chamber, not in the darkened section. The nipple extends 2 cm into the chamber at a height of 5 cm from the floor. The reason for such arrangement is that once exposed to a new environment, the animals instinctively attempt to hide in the dark section, and therefore may accidentally find a drinking tube, not as a consequence of purposeful search to satisfy the motivation. The electrode floor and the nipple of the drinking tube are connected to the electronic unit. The electronic unit contains current stabilizers (one per channel, which provides the possibility of independent current regulation), output signal generators for the counting device and delay generators for supplying punishing current to the drinking tube during the day of the experiment. That arrangement permits registration of non-punishable drinkings while establishing a drinking habit (trainings without supplying current to the drinking tubes), administration of a punishment current, and recordation of signals from punishable drinkings during the experiment.
The counting device enables registration of non-punishable drinkings during training and punishable drinkings during the experiment. Registration of readings was conducted using Pentium III personal computer with a 550 MHz C.P.U., a special device for converting output signals from the electronic unit into standard pulses suitable for inputting to the computer via a serial port, and a program written in BASIC (Beginner's All-Purpose Symbolic Instruction Code) for recording events and time intervals into disc files. The data accumulated in these files was later analyzed with the statistical package Statistica® for Windows®.
The experiment was conducted for 3 days. On the first day, the animals were completely deprived of water. On the second day, i.e., after 24-hours without water, animals were allowed to establish a habit of taking water from the drinking tube. To achieve this, animals were placed in the experimental chamber for 5 minutes. Typically, each animal surveyed the chamber and after a period of time found a drinking tube and started to drink. On the […] day, a weak current of 50 μA was applied to the drinking tube and the chamber floor. […]

white outbred male rats [1] = assay: Open field test under stress; settings: for Exits to the center of the field / Horizontal activity / Surveyed holes / Vertical activity: 40 min after dosing, 3 min observation
Method: The “open field” test uses a method of creating stress based on a rat's fear of new surroundings, open space and bright illumination.
An open field setup used in this study consisted of a one meter square box (1 m×1 m×1 m) with a clear top. The floor of the chamber was uniformly divided by lines into 9 squares, with 16 2.5 cm diameter holes. Before the experiment, rats were kept in the dark for 10 minutes, after which they were placed onto one of the peripheral squares of the open field. […] During the experiment the following information was recorded: the number of crossed squares on the periphery and in the center (separately), the number of vertical stands, the number of times holes were surveyed, and the number of exits to the center of the open field.
The main indicator of anxiolytic effect of the drugs was the measure of number of exits by the rat to the center of illuminated field. Increase or decrease in the number of horizontal or vertical movements reflected sedative or stimulating effect of the drug, while the number of holes surveyed reflects orientation-investigative behavior of the rat.
Experiments were conducted using white outbred male rats weighing 240 g to 280 g. Before the beginning of the test, experimental animals were randomly separated into groups containing at least 10 rats. […] Rats in the control group received 0.2 ml water per 100 g mass administered intraperitoneally. Data was recorded beginning 40 minutes after administering the compounds.

white outbred male rats [2] = assay: Elevated plus-maze (EPM) in rats; settings: for Latent time / Number of entries into bright arms / Number of entries into dark arms / Time in bright arms / Total number of crossings: 40 min after dosing, 5 min observation
Method: The model is based on stress and fear, which appear in animals while displaying orientation-investigative behavior and burrowing reflex under the complicated conditions of elevated plus-maze (novelty of surroundings, fear of height and illumination).
EPM for rats is performed in a chamber consisting of four compartments formed by the crossing of two strips measuring 50×10 cm. Two opposing compartments have vertical walls 40 cm high (protected dark arms), while two others (unprotected open bright arms) are free from protective walls. The maze is elevated 50 cm off the floor. At the center of the chamber where the two strips cross, there is a central platform measuring 10×10 cm. Rats were placed on the central platform with their tails facing an open bright arm. Time remaining on the central platform, time spent by the animals inside the open arms, and the number of entries into open and closed arms were recorded. The total observation time for each animal was 5 minutes. The main criterion of anxiolytic effect is the measure of time spent in the open bright arm of the setup. The number of crossings the central platform (number of entries into the dark and bright arms of the maze and the sum thereof) was used to estimate the effect of compounds on orientation-investigative behavior and motion activity of rats.
Experiments were conducted using white outbred male rats weighing 240 g to 280 g. Before beginning the test, experimental animals were randomly separated into groups of at least 10 rats. […] Rats in the control group received 0.2 ml water per 100 g mass administered intraperitoneally. Data was recorded beginning forty minutes after administration of the compounds.

SAM-P/10 mice = assay: Elevated plus-maze in SAM-P/10 mice with genetically determined anxiety; type: in vivo, mouse; settings: 11-month old SAM-P/10 mice; for Latent time / Number of entries into bright arms / Number of entries into dark arms / Time in bright arms / Total number of crossings: 40 min prior to testing, 5 min observation
Description: One of the modern methods of studying the anxiolytic effect of drugs uses a mouse strain with an increased level of anxiety. This study utilized mice of the SAM-P/10 line (Takeda, T., et al., “Senescence-Accelerated Mouse (SAM): A Novel Murine Model of Accelerated Senescence,” J. Amer. Geriatr. Soc., 1991, v. 39, pp. 911-919) weighing between 26 g and 31 g, in which, among other changes, a genetically determined anxiety is observed. […] Those symptoms actively accumulate beginning from the age of 6-months (accelerated aging) (Miyamoto, M., “Indicators of age-related behavioral changes in Senescence-Accelerated Mouse SAMP8 and SAMP10,” Exp. Gerontol., 1997, v. 32, pp. 139-148; and Shimada, A., et al., “Age-related deterioration in conditional avoidance task in the SAM-P/10 mouse, an animal model of spontaneous brain atrophy,” Brain Res., 1993, v. 608, pp. 266-272).
This study utilized SAM-P/10 (Senescence-Accelerated Mouse P10) mice in two age groups—3-months and 11-months old. A group of 3-month old animals and a group of 11-month old animals were each divided into three subgroups: one group received Dimebon at a dose of 0.05 mg/kg, the second group received Dimebon at a dose of 2 mg/kg, and the third group received physiological saline. All substances were administered intraperitoneally 40 minutes prior to testing in the amount of 0.1 ml per 10 g of mouse weight. This study was conducted during the first half of the day from 10:00 a.m. to 2:00 p.m.
The maze is elevated 30 cm off the floor. […] Time spent by mice in the open arms of the maze was used as a main indicator of anxiety level.

AMPA receptors = settings: cerebral neurons in rats; cited from earlier work
NMDA receptors = settings: cerebral neurons in rats; cited from earlier work

SMILES: CN1C(=O)CN=C(c2ccccc2)c2cc(Cl)ccc21 [Diazepam ®, reference compound]
- No. of punishable drinkings (outbred white male rats; 2.0 mg/kg i.p.): 372.71 ± 27.81
- Side effects at the anxiolytic dose (in words) (outbred white male rats; therapeutic dose of 2 mg/kg): sedation, reduction in motion activity and impaired coordination
- Effect on horizontal and vertical motion activity within the open field (in words) (white outbred male rats [1]; 2 mg/kg): significantly suppressed
- Exits to the center of the field (white outbred male rats [1]; 2 mg/kg i.p.): 1.8 ± 0.3
- Horizontal activity (white outbred male rats [1]; 2 mg/kg i.p.): 10.2 ± 1.4
- Surveyed holes (white outbred male rats [1]; 2 mg/kg i.p.): 6.5 ± 1.9
- Vertical activity (white outbred male rats [1]; 2 mg/kg i.p.): 3.4 ± 1.3
- Sedative effect in elevated plus-maze (in words) (white outbred male rats [2]; 2 mg/kg i.p.): sedative, depriming effect
- Latent time (white outbred male rats [2]; 2.0 mg/kg i.p.): 7.68 ± 2.0 s
- Number of entries into bright arms (white outbred male rats [2]; 2.0 mg/kg i.p.): 2.12 ± 1.08
- Number of entries into dark arms (white outbred male rats [2]; 2.0 mg/kg i.p.): 2.20 ± 0.47
- Time in bright arms (white outbred male rats [2]; 2.0 mg/kg i.p.): 25.6 ± 6.87 s
- Total number of crossings (white outbred male rats [2]; 2.0 mg/kg i.p.): 4.32 ± 1.01

SMILES: Cc1ccc2c(c1)c1c(n2CCc2ccc(C)nc2)CCN(C)C1 [Dimebon, 2,8-dimethyl-5-[2-(6-methyl-3-pyridyl)ethyl]-2,3,4,5-tetrahydro-1H-pyrido[4,3-b]indole]
- No. of punishable drinkings (outbred white male rats; 0.05 mg/kg i.p.): 171.31 ± 15.67
- No. of punishable drinkings (outbred white male rats; 0.1 mg/kg i.p.): 261.18 ± 29.74
- No. of punishable drinkings (outbred white male rats; 2.0 mg/kg i.p.): 354.25 ± 32.49
- No. of punishable drinkings (outbred white male rats; 5.0 mg/kg i.p.): 405.33 ± 26.35
- Change in punishable drinkings versus control (in words) (outbred white male rats; dose range 0.1 to 5 mg/kg i.p.): statistically significant increase
- Sedative and muscle relaxant side effects (in words) (outbred white male rats; doses 0.1-5.0 mg/kg): lacks the sedative and muscle relaxant side effects
- Time spent in the open, unprotected arms relative to control (in words) (SAM-P/10 mice; 0.05 mg/kg): doubled
- Latent time (SAM-P/10 mice; 0.05 mg/kg i.p.): 7.5 ± 1.5 s
- Number of entries into bright arms (SAM-P/10 mice; 0.05 mg/kg i.p.): 1.9 ± 1.0
- Number of entries into dark arms (SAM-P/10 mice; 0.05 mg/kg i.p.): 5.86 ± 1.53
- Time in bright arms (SAM-P/10 mice; 0.05 mg/kg i.p.): 8.7 ± 3.3 s
- Total number of crossings (SAM-P/10 mice; 0.05 mg/kg i.p.): 11.7 ± 1.5
- Increase in the number of entries into the open arms (SAM-P/10 mice; 2 mg/kg): more than 4 fold
- Increase in the time spent in the open arms (SAM-P/10 mice; 2 mg/kg): more than 4 fold
- Latent time (SAM-P/10 mice; 2.0 mg/kg i.p.): 6.0 ± 1.4 s
- Number of entries into bright arms (SAM-P/10 mice; 2.0 mg/kg i.p.): 4.2 ± 1.1
- Number of entries into dark arms (SAM-P/10 mice; 2.0 mg/kg i.p.): 7.10 ± 3.21
- Time in bright arms (SAM-P/10 mice; 2.0 mg/kg i.p.): 17.7 ± 5.2 s
- Total number of crossings (SAM-P/10 mice; 2.0 mg/kg i.p.): 18.1 ± 5.3
- Effect on transmembrane currents caused by activation of the AMPA receptors (AMPA receptors): potentiates
- Effect on NMDA receptors (NMDA receptors): blocking
- Exits to the center of the field (white outbred male rats [1]; 0.1 mg/kg i.p.): 0.8 ± 0.3
- Horizontal activity (white outbred male rats [1]; 0.1 mg/kg i.p.): 21.7 ± 5.9
- Surveyed holes (white outbred male rats [1]; 0.1 mg/kg i.p.): 12.3 ± 1.7
- Vertical activity (white outbred male rats [1]; 0.1 mg/kg i.p.): 7.8 ± 1.3
- Exits to the center of the field (white outbred male rats [1]; 2 mg/kg i.p.): 1.5 ± 0.2
- Horizontal activity (white outbred male rats [1]; 2 mg/kg i.p.): 20.3 ± 6.1
- Surveyed holes (white outbred male rats [1]; 2 mg/kg i.p.): 11.2 ± 2.6
- Vertical activity (white outbred male rats [1]; 2 mg/kg i.p.): 6.9 ± 3.2
- Exits to the center of the field (white outbred male rats [1]; 5 mg/kg i.p.): 2.2 ± 0.3
- Horizontal activity (white outbred male rats [1]; 5 mg/kg i.p.): 19.2 ± 2.4
- Surveyed holes (white outbred male rats [1]; 5 mg/kg i.p.): 13.5 ± 1.9
- Vertical activity (white outbred male rats [1]; 5 mg/kg i.p.): 9.3 ± 2.4
- Effect on number of horizontal and vertical movements and surveyed holes (in words) (white outbred male rats [1]; doses of 0.1, 2 and 5 mg/kg): did not cause a decrease
- Anxiolytic effect in the open field test (in words) (white outbred male rats [1]; doses of 2 and 5 mg/kg): significant, pronounced anxiolytic effect
- Time spent inside the open arms relative to control (white outbred male rats [2]; 0.1 mg/kg i.p.): nearly five times as long as the control
- Latent time (white outbred male rats [2]; 0.1 mg/kg i.p.): 3.43 ± 0.53 s
- Number of entries into bright arms (white outbred male rats [2]; 0.1 mg/kg i.p.): 1.86 ± 1.00
- Number of entries into dark arms (white outbred male rats [2]; 0.1 mg/kg i.p.): 5.86 ± 1.53
- Time in bright arms (white outbred male rats [2]; 0.1 mg/kg i.p.): 20.00 ± 7.75 s
- Total number of crossings (white outbred male rats [2]; 0.1 mg/kg i.p.): 7.71 ± 2.25
- Increase in the number of entries into the open arms (white outbred male rats [2]; 2 mg/kg i.p.): more than twice
- Latent time (white outbred male rats [2]; 2.0 mg/kg i.p.): 2.93 ± 0.41 s
- Number of entries into bright arms (white outbred male rats [2]; 2.0 mg/kg i.p.): 4.25 ± 1.18
- Number of entries into dark arms (white outbred male rats [2]; 2.0 mg/kg i.p.): 7.10 ± 3.21
- Time in bright arms (white outbred male rats [2]; 2.0 mg/kg i.p.): 26.34 ± 8.12 s
- Total number of crossings (white outbred male rats [2]; 2.0 mg/kg i.p.): 11.60 ± 3.30
- Increase in total number of crossings (white outbred male rats [2]; 2 mg/kg i.p., P≦0.05): 2 times
